“Also recorded” adds a separate entry of the source. Peptide text beside a SMILES is read from it. * marks the point of attachment. Cbz = O=C(OCc1ccccc1)*
How the values were obtained:
FAO hepatoma cells = assay: Western blots / gene expression in FAO hepatoma cells transduced with Fc or N1-IC; assay type: cell-based; details: MG132 for 4-h
From the text: FIG. 8A-FIG. 8F: Activation of hepatic Notch increases mTor, lipogenic genes, and steatosis in chow-fed mice. *p<0.05, **p<0.01, ***p<0.001 vs. Fc or GFP. Protein expression normalized to either Actin or Tubulin. Mice were 8-week-old C57Bl/6 males, unless otherwise indicated. […] FIG. 8D: Liver Western blots in mice transduced with GFP or N1-IC adenovirus, sacrificed after a 16-h fast followed by 2-h refeeding. (n=6/group). FIG. 8E: Gene expression analysis in mice transduced with GFP or N1-IC adenovirus, sacrificed after a 16-h fast followed by 2-h refeeding. (n=6/group). FIG. 8F: De novo lipogenesis in hepatocytes after transduction with GFP or N1-IC adenovirus and incubation with 10 nM insulin (triplicate wells, representative of 2 individual experiments). FIG. 8G: Hepatic triglyceride content 7-d after GFP or N1-IC transduction in 16-h fasted, 24-week-old, chow-fed Cre- and L-Rbpj mice. […] FIG. 8K-FIG. 8M: Quantitation of the phospho/total mTor, 4E-BP1 and S6k levels from the experiments in FIG. 8J. […]
(§1) Notch1-IC, Notch decoy (1-24), Fc and GFP adenoviruses have been described (Kitamura 2007; Funahashi 2011; Nakae 2003). We transduced primary hepatocytes or HEK 293 ceils at MOI 5 and FAO hepatoma cells at MOI 200, to achieve 90-100% infection efficiency as assessed by GFP expression. […]

primary hepatocytes = assay: Western blots of primary hepatocytes transfected with Raptor cDNA, transduced with Fc or Notch1, cycloheximide; assay type: cell-based, mouse; details: cycloheximide for 2-h
Description: FIG. 11A-FIG. 11H: Notch induces mTorc1 complex stability. FIG. 11A: Western blots of liver proteins from 5h-fasted L-Rbpj and control mice (mTor and Actin blots reproduced from FIG. 2n), FIG. 11B: Western blot of liver protein from chow-fed, 12-week-old mice transduced with Fc or N1-IC, sacrificed at day 7, after overnight fasting. FIG. 11C: Western blots from FAO hepatoma cells transduced with either Fc or N1-IC, with or without treatment with MG132 for 4-h. FIG. 11D: Western blots of primary hepatocytes, transfected with Raptor cDNA, then transduced with Fc or Notch1 and treated for 2-h with cycloheximide. […]
We isolated and cultured primary mouse hepatocytes as described (Pajvani 2011). […] We measured fatty acid oxidation as described (Li 2011), with the following modifications: primary hepatocytes were incubated serum-free medium with 1.5% fatty-acid free BSA (Sigma) containing 0.1 mM cold oleic acid and 1 μCi 14C-oleic acid (PerkinElmer Life Sciences) for 4 h. […] Trapped 14CO2 on the alkalinized filter paper was measured as described (Li 2011). We measured lipogenesis as described (Yecies 2011), with the following modifications: hepatocytes were stimulated with 10 nM insulin in serum-free DMEM for 2 h, then labeled with 14C-acetate (PerkinElmer Life Sciences) for 2 h. […]

N1-IC-transduced mice = assay: Rapamycin treatment of Fc or N1-IC-transduced mice; assay type: in vivo, mouse; details: data not shown
Description: FIG. 9A-FIG. 9F: mTor inhibition prevents Notch-induced fatty liver. Data shown means±SEM. FIG. 9A: Fasn-luciferase in FAO hepatoma cells transfected with either Raptor or scrambled (scr) shRNA, transduced with either Fc (−) or N1-IC (Notch) adenovirus and treated for 16-h with 100 nM insulin. ***p<0.001 vs. Fc control, &p<0.001 vs. scrambled shRNA, #p<0.001 vs. no insulin. […]
Blood glucose was measured by glucose meter (OneTouch) and plasma insulin by ELISA (Millipore). […] Hepatic de novo lipogenesis was determined by measuring the amount of newly synthesized FA, as resolved by TLC, present in the liver 1 h after intraperitoneal injection of 1 mCi of 3H2O (Zhang 2006). Triglyceride secretion rate was measured after injection of Poloxamer 407, with serial measurement of plasma triglycerides (Li 2011).
as §1

CC(C)C[C@@H](C=O)NC(=O)[C@H](CC(C)C)NC(=O)[C@H](CC(C)C)NC(=O)OCc1ccccc1 [MG132] (Cbz-Leu-Leu-Leu-aldehyde)
effect of N1-IC on Raptor protein under proteosomal inhibition (FAO hepatoma cells): independent

C[C@@H]1C[C@@H]([C@H](O)CC2CC(=O)NC(=O)C2)C(=O)[C@@H](C)C1 [cycloheximide]
effect of N1-IC on Raptor protein under protein synthesis inhibition (primary hepatocytes): fully reversed; also recorded: prevents

CO[C@H]1C[C@@H]2CC[C@@H](C)[C@@](O)(O2)C(=O)C(=O)N2CCCC[C@H]2C(=O)O[C@H]([C@H](C)C[C@@H]2CC[C@@H](O)[C@H](OC)C2)CC(=O)[C@H](C)/C=C(\C)[C@@H](O)[C@@H](OC)C(=O)[C@H](C)C[C@H](C)/C=C/C=C/C=C/1C [rapamycin]
effect of rapamycin on glucose tolerance (N1-IC-transduced mice): mild glucose intolerance

Reference: patent publication US20180303901A1, “Notch1 Decoy Antagonists Protect From Obesity-Induced Insulin Resistance and Fatty Liver” (The Trustees of Columbia University in the City of New York, priority 2013, published 2018)
